Assay results: ChEMBL document CHEMBL5523701, “Structure-based discovery of small molecule inhibitors of FKBP51-Hsp90 protein-protein interaction” (Eur J Med Chem, 2024)

Assays:
[1] = target: Stress-induced-phosphoprotein 1 (Homo sapiens, UniProt P31948); assay: Inhibition of GST-tagged human HOP expressed in Escherichia coli BL21 (DE3) using NH2-EDASRMEEVD-COOH peptide as substrate preincubated for 15 mins followed by substrate addition measured after 15 mins by Alpha Screen assay
[2] = target: T1, Peptidyl-prolyl cis-trans isomerase FKBP4 (Homo sapiens, UniProt Q02790); assay: Inhibition of GST-tagged human FKBP52 expressed in Escherichia coli BL21 (DE3) using NH2-EDASRMEEVD-COOH peptide as substrate preincubated for 15 mins followed by substrate addition measured after 15 mins by Alpha Screen assay
T1 sequence (Q02790 whole entry): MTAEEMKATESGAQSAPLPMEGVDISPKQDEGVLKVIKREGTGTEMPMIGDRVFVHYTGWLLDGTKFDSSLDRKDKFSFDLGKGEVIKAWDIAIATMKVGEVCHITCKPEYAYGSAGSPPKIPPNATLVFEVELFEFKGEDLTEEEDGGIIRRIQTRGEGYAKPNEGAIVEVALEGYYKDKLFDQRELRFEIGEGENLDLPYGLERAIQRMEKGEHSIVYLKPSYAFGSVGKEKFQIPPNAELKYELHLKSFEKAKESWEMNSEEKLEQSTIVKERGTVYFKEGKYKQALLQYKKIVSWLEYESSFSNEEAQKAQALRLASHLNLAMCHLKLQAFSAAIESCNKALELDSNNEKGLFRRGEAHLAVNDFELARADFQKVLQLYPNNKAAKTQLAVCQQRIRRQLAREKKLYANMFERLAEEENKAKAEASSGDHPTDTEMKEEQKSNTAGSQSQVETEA

[3] = target: T2, E3 ubiquitin-protein ligase CHIP (Homo sapiens, UniProt Q9UNE7); assay: Inhibition of GST-tagged human CHIP expressed in Escherichia coli BL21 (DE3) using NH2-EDASRMEEVD-COOH peptide as substrate preincubated for 15 mins followed by substrate addition measured after 15 mins by Alpha Screen assay
T2 sequence (Q9UNE7 whole entry): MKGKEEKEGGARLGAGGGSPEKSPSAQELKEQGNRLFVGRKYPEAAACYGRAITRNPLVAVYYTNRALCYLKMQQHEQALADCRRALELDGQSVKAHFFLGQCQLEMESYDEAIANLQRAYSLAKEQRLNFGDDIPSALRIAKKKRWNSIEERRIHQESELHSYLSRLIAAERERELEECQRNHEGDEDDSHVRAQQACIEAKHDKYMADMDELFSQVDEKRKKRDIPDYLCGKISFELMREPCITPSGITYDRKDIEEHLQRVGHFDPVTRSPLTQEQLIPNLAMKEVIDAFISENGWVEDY

[4] = target: T3, DnaJ homolog subfamily C member 7 (Homo sapiens, UniProt Q99615); assay: Inhibition of GST-tagged human DNAJC7 expressed in Escherichia coli BL21 (DE3) using NH2-EDASRMEEVD-COOH peptide as substrate preincubated for 15 mins followed by substrate addition measured after 15 mins by Alpha Screen assay
T3 sequence (Q99615 whole entry): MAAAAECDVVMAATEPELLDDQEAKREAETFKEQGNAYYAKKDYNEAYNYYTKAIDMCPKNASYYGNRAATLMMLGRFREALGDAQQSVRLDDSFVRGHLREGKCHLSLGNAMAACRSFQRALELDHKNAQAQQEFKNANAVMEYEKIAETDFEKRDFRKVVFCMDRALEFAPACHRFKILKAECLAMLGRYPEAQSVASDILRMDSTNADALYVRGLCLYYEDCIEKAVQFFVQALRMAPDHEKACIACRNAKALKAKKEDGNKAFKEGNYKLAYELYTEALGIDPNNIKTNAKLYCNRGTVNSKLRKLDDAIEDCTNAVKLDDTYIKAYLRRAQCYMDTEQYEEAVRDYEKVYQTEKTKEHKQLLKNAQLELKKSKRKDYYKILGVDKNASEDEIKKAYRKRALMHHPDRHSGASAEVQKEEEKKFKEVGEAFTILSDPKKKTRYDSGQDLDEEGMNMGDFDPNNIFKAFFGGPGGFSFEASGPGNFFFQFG

[5] = target: T4, Serine/threonine-protein phosphatase 5 (Homo sapiens, UniProt P53041); assay: Inhibition of GST-tagged human PP5 expressed in Escherichia coli BL21 (DE3) using NH2-EDASRMEEVD-COOH peptide as substrate preincubated for 15 mins followed by substrate addition measured after 15 mins by Alpha Screen assay
T4 sequence (P53041 whole entry): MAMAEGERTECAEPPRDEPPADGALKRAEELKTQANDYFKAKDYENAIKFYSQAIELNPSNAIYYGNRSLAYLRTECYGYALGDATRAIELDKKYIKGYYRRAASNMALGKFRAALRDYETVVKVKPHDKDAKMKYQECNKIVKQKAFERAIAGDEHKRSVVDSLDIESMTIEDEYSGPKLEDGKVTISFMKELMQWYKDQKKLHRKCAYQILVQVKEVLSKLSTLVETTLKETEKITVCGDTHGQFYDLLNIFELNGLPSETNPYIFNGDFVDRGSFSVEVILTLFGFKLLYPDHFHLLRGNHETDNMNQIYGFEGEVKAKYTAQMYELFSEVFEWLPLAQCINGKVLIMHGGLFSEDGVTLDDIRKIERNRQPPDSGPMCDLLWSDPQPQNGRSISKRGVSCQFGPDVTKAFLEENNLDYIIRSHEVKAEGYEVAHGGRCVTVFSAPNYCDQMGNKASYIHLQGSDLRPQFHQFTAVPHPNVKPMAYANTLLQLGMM

[6] = target: Peptidyl-prolyl cis-trans isomerase FKBP8 (Homo sapiens, UniProt Q14318); assay: Inhibition of GST-tagged human FKBP38 expressed in Escherichia coli BL21 (DE3) using NH2-EDASRMEEVD-COOH peptide as substrate preincubated for 15 mins followed by substrate addition measured after 15 mins by Alpha Screen assay
Peptidyl-prolyl cis-trans isomerase FKBP8, sequence (Q14318 whole entry): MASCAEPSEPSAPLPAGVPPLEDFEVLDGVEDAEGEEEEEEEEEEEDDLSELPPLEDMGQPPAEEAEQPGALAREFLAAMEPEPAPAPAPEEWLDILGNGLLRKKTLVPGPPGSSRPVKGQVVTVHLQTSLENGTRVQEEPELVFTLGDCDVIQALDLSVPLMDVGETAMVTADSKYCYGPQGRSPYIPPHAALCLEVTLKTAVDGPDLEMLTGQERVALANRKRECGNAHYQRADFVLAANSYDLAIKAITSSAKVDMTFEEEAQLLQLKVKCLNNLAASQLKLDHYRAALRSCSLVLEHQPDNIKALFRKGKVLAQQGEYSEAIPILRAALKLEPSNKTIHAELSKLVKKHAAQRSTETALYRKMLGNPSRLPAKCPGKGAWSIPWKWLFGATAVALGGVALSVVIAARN

Stress-induced-phosphoprotein 1, sequence (P31948 whole entry): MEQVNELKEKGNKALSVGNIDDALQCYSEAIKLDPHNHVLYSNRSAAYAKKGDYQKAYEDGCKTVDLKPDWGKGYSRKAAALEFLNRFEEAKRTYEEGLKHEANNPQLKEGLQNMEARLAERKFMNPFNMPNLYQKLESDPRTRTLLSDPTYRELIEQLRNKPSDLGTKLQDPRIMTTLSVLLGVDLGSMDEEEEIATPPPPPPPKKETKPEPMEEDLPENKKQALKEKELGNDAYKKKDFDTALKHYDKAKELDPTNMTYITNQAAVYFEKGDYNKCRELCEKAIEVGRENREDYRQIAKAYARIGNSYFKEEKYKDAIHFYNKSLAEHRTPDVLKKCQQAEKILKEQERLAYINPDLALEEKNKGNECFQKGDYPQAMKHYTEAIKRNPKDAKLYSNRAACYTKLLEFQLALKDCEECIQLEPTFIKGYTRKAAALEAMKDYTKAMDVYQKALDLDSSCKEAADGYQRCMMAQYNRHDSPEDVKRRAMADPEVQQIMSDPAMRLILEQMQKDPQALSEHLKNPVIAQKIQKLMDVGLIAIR

| IC50 [1] [nM] | IC50 [2] [nM] | IC50 [3] [nM] | IC50 [4] [nM] | IC50 [5] [nM] | IC50 [6] [nM] | Structure (SMILES) |
| --- | --- | --- | --- | --- | --- | --- |
| 5000 | 3000 | 2500 | 4000 | 2500 | 2500 | COC(=O)c1c(NC(=O)CSc2nnc(-c3ccco3)c(-c3ccco3)n2)sc(C)c1C |
| 10000 | 5000 | 2500 | 2000 | 2000 | 4000 | Cc1sc(NC(=O)CCCC(=O)Nc2sc(C)c(C)c2C(N)=O)c(C(N)=O)c1C |
